Measurements as given in ChEMBL document CHEMBL4507310, “Data for DCP probe A-1211212” (2021).

Assays:
[1] = molecular target: Adenosine receptor A2a (Homo sapiens) (UniProt P29274); experiment: A2A (h) Eurofins-Cerep binding assay; design: ligand concentration 6 nM; conditions: filed as agonist, Compound concentration 10.0 uM
[2] = molecular target: Beta-1 adrenergic receptor (Homo sapiens) (UniProt P08588); experiment: Beta1 (h) Eurofins-Cerep binding assay; design: ligand concentration 0.3 nM; conditions: filed as agonist, Compound concentration 10.0 uM
[3] = molecular target: Histamine H2 receptor (Homo sapiens) (UniProt P25021); experiment: H2 (h) Eurofins-Cerep binding assay; design: ligand concentration 0.075 nM; conditions: filed as antagonist, Compound concentration 10.0 uM
[4] = molecular target: T1, Muscarinic acetylcholine receptor M5 (Homo sapiens) (UniProt P08912); experiment: M5 (h) Eurofins-Cerep binding assay; design: ligand concentration 0.3 nM; conditions: filed as antagonist, Compound concentration 10.0 uM
T1 sequence (whole entry): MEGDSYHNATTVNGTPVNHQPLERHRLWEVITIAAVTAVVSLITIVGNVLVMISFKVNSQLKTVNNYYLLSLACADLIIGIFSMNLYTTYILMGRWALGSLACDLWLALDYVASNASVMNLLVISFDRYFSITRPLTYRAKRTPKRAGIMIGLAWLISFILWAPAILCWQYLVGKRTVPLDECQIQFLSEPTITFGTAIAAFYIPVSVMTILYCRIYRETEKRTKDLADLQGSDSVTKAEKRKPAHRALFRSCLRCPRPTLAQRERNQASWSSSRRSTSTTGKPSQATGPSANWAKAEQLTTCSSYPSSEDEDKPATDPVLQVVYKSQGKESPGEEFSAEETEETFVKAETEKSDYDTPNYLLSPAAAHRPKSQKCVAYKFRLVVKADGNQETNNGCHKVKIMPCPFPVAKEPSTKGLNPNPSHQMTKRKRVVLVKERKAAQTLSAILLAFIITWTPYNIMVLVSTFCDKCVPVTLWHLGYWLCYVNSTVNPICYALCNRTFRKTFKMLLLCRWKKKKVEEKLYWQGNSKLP

[5] = molecular target: Delta-type opioid receptor (Homo sapiens) (UniProt P41143); experiment: delta (DOP) (h) Eurofins-Cerep binding assay; design: ligand concentration 0.5 nM; conditions: filed as agonist, Compound concentration 10.0 uM
[6] = molecular target: Sodium- and chloride-dependent GABA transporter 1 (Rattus norvegicus) (UniProt P23978); experiment: GABA transporter Eurofins-Cerep binding assay; design: ligand concentration 10 nM; conditions: filed as antagonist, Compound concentration 10.0 uM
[7] = molecular target: ALK tyrosine kinase receptor (Homo sapiens) (UniProt Q9UM73); conditions: Compound concentration 1000.0 nM
[8] = molecular target: Cyclin-dependent kinase-like 2 (Homo sapiens) (UniProt Q92772); conditions: Compound concentration 1000.0 nM
[9] = molecular target: Cyclin-dependent kinase-like 3 (Homo sapiens) (UniProt Q8IVW4); conditions: Compound concentration 1000.0 nM
[10] = molecular target: Dual specificity protein kinase CLK4 (Homo sapiens) (UniProt Q9HAZ1); conditions: Compound concentration 1000.0 nM
[11] = molecular target: Ephrin type-A receptor 5 (Homo sapiens) (UniProt P54756); conditions: Compound concentration 1000.0 nM
[12] = molecular target: Receptor tyrosine-protein kinase erbB-2 (Homo sapiens) (UniProt P04626); conditions: Compound concentration 1000.0 nM
[13] = molecular target: Mitogen-activated protein kinase 3 (Homo sapiens) (UniProt P27361); conditions: Compound concentration 1000.0 nM
[14] = test system: Receptor-type tyrosine-protein kinase FLT3 (Homo sapiens), P36888 [UNDEFINED MUTATION]; conditions: Compound concentration 1000.0 nM
[15] = molecular target: Inhibitor of nuclear factor kappa-B kinase subunit alpha (Homo sapiens) (UniProt O15111); conditions: Compound concentration 1000.0 nM
[16] = molecular target: Dual specificity mitogen-activated protein kinase kinase 5 (Homo sapiens) (UniProt Q13163); conditions: Compound concentration 1000.0 nM
[17] = molecular target: Mitogen-activated protein kinase kinase kinase 9 (Homo sapiens) (UniProt P80192); conditions: Compound concentration 1000.0 nM
[18] = molecular target: Serine/threonine-protein kinase MRCK beta (Homo sapiens) (UniProt Q9Y5S2); conditions: Compound concentration 1000.0 nM
[19] = molecular target: Serine/threonine-protein kinase 4 (Homo sapiens) (UniProt Q13043); conditions: Compound concentration 1000.0 nM
[20] = molecular target: Serine/threonine-protein kinase 3 (Homo sapiens) (UniProt Q13188); conditions: Compound concentration 1000.0 nM
[21] = molecular target: Serine/threonine-protein kinase 26 (Homo sapiens) (UniProt Q9P289); conditions: Compound concentration 1000.0 nM
[22] = molecular target: Cyclin-dependent kinase 15 (Homo sapiens) (UniProt Q96Q40); conditions: Compound concentration 1000.0 nM
[23] = test system: Phosphatidylinositol 4,5-bisphosphate 3-kinase catalytic subunit alpha isoform (Homo sapiens), P42336 [H1047L]; conditions: Compound concentration 1000.0 nM
[24] = molecular target: cGMP-dependent protein kinase 2 (Homo sapiens) (UniProt Q13237); conditions: Compound concentration 1000.0 nM
[25] = molecular target: Ribosomal protein S6 kinase alpha-2 (Homo sapiens) (UniProt Q15349); conditions: Compound concentration 1000.0 nM
[26] = molecular target: Serine/threonine-protein kinase 16 (Homo sapiens) (UniProt O75716); conditions: Compound concentration 1000.0 nM
[27] = molecular target: Serine/threonine-protein kinase 35 (Homo sapiens) (UniProt Q8TDR2); conditions: Compound concentration 1000.0 nM
[28] = molecular target: Tyrosine-protein kinase Tec (Homo sapiens) (UniProt P42680); conditions: Compound concentration 1000.0 nM
[29] = molecular target: Serine/threonine-protein kinase tousled-like 2 (Homo sapiens) (UniProt Q86UE8); conditions: Compound concentration 1000.0 nM
[30] = molecular target: NT-3 growth factor receptor (Homo sapiens) (UniProt Q16288); conditions: Compound concentration 1000.0 nM
[31] = molecular target: Phosphatidylinositol 3-kinase catalytic subunit type 3 (Homo sapiens) (UniProt Q8NEB9); conditions: Compound concentration 1000.0 nM
[32] = molecular target: Histamine H3 receptor (Homo sapiens) (UniProt Q9Y5N1); conditions: Compound concentration 10.0 uM
Histamine H3 receptor (Homo sapiens), sequence (Q9Y5N1 whole entry): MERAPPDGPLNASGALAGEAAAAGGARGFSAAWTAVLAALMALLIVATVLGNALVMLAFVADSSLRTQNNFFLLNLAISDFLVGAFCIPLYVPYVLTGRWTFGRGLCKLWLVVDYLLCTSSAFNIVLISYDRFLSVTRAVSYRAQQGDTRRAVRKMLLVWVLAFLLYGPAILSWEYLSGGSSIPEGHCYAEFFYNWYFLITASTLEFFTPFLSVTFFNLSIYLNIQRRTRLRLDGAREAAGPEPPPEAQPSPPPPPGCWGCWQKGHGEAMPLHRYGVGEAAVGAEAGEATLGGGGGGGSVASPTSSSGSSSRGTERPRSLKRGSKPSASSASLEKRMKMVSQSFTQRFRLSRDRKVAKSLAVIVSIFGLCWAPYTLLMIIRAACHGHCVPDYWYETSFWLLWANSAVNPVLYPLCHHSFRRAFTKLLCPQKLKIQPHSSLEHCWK

Histamine H2 receptor (Homo sapiens), sequence (P25021 whole entry): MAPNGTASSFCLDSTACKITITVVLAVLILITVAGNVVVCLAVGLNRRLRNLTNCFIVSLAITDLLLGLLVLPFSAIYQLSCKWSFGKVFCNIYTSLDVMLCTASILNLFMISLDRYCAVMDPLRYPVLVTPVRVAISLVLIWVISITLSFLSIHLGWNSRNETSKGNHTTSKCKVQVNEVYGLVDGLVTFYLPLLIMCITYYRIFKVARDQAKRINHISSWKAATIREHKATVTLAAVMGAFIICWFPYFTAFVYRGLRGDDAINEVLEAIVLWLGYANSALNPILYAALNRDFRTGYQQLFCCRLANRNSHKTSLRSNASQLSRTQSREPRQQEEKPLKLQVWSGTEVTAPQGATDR
Receptor-type tyrosine-protein kinase FLT3 (Homo sapiens), P36888 [UNDEFINED MUTATION], sequence (P36888 whole entry, looked up, change not shown): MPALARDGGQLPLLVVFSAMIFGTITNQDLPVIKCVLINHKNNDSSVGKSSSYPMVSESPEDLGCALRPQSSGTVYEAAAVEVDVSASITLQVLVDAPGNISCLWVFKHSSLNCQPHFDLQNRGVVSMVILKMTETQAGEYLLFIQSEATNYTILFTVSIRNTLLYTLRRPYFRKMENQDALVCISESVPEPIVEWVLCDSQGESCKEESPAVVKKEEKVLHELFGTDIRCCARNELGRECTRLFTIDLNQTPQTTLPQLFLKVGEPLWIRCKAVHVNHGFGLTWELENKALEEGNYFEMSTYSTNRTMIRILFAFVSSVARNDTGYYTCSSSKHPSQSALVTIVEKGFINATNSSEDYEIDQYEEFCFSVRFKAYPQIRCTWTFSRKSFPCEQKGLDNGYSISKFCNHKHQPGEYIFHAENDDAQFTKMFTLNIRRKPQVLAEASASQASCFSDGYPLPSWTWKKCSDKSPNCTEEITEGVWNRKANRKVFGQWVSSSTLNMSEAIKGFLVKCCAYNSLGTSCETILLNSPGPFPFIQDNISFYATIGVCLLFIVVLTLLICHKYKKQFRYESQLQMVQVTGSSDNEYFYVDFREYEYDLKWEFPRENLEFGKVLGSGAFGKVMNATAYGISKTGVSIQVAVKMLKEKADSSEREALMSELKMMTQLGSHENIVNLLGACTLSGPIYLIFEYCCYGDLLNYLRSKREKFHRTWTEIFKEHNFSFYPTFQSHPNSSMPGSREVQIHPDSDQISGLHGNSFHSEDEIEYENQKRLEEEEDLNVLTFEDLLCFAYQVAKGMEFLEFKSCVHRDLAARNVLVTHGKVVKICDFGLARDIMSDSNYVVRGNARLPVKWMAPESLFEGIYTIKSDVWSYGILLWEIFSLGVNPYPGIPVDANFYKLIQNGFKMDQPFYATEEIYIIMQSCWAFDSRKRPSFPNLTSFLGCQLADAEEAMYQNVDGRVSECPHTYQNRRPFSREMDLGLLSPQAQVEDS
Adenosine receptor A2a (Homo sapiens), sequence (P29274 whole entry): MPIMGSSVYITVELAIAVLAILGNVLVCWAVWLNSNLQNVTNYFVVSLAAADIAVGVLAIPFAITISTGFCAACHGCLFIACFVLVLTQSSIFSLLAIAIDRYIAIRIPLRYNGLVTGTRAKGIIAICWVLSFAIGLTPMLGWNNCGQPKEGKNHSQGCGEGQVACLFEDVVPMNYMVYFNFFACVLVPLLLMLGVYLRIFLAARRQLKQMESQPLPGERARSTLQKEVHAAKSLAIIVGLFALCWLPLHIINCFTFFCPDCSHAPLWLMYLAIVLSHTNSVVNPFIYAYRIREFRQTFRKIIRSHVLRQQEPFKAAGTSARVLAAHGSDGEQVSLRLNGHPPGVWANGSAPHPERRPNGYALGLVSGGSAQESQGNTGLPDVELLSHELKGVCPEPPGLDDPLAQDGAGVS
Serine/threonine-protein kinase 26 (Homo sapiens), sequence (Q9P289 2-416 limits assumed): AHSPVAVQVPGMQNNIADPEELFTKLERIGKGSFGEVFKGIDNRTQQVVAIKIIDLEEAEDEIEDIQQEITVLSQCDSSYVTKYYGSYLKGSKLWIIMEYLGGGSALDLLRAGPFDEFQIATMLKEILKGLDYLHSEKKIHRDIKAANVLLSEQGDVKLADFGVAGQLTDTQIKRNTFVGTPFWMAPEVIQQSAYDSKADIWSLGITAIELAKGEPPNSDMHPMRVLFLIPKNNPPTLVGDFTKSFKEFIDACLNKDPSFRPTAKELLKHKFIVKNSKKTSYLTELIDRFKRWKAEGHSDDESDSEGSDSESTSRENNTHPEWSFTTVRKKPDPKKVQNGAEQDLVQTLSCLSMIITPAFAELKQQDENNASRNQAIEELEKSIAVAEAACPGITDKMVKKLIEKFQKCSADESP
Beta-1 adrenergic receptor (Homo sapiens), sequence (P08588 whole entry, looked up): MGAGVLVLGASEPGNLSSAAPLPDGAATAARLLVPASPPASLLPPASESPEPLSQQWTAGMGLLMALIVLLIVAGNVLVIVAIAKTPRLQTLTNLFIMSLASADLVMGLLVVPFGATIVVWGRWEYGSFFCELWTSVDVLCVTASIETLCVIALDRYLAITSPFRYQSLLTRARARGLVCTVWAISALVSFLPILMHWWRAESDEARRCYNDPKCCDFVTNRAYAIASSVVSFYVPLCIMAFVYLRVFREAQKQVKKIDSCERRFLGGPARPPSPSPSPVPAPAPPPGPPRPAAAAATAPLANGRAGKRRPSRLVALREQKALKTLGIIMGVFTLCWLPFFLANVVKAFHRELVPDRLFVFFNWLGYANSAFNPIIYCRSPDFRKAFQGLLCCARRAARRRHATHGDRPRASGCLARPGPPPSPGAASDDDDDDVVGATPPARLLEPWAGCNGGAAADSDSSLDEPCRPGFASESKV
Serine/threonine-protein kinase tousled-like 2 (Homo sapiens), sequence (Q86UE8 whole entry, looked up): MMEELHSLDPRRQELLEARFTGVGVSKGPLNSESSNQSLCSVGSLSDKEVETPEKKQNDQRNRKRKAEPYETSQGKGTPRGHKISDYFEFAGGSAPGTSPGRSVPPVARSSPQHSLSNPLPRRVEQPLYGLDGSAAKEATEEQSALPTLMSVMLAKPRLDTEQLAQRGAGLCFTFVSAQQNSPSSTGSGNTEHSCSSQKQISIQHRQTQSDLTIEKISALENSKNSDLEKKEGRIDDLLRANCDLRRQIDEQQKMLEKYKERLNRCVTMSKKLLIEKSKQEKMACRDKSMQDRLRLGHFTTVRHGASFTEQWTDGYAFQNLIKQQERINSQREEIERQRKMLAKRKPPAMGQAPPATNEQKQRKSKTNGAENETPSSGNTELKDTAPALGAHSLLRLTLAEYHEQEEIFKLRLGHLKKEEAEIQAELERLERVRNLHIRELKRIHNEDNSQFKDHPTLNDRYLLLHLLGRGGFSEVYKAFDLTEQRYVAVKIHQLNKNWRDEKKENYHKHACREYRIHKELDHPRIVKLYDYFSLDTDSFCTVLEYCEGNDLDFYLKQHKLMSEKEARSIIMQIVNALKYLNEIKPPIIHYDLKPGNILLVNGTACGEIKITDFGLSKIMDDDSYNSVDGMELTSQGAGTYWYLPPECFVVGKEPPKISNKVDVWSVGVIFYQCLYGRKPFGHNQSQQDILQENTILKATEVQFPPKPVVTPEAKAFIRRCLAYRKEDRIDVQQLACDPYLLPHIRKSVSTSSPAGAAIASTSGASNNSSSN
Dual specificity mitogen-activated protein kinase kinase 5 (Homo sapiens), sequence (Q13163 whole entry): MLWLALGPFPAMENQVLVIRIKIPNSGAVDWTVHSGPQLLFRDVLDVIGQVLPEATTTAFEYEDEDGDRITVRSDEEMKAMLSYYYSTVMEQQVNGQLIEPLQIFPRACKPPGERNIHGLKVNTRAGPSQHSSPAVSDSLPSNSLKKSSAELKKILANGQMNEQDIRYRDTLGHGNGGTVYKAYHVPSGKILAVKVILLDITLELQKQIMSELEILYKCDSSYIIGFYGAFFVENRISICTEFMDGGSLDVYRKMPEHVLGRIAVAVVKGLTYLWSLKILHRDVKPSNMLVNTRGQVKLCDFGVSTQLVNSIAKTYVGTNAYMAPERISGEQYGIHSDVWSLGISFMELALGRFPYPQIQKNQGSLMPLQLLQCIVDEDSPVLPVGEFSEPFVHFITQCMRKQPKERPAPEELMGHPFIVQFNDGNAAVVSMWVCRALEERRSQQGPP

| SMILES | % Inhibition of Control Specific Binding (Mean n=2) [1] [%] | % Inhibition of Control Specific Binding (Mean n=2) [2] [%] | % Inhibition of Control Specific Binding (Mean n=2) [3] [%] | % Inhibition of Control Specific Binding (Mean n=2) [4] [%] | % Inhibition of Control Specific Binding (Mean n=2) [5] [%] | % Inhibition of Control Specific Binding (Mean n=2) [6] [%] | residual activity [7] [%] | residual activity [8] [%] | residual activity [9] [%] | residual activity [10] [%] | residual activity [11] [%] | residual activity [12] [%] | residual activity [13] [%] | residual activity [14] [%] | residual activity [15] [%] | residual activity [16] [%] | residual activity [17] [%] | residual activity [18] [%] | residual activity [19] [%] | residual activity [20] [%] | also measured |
| --- | --- | --- | --- | --- | --- | --- | --- | --- | --- | --- | --- | --- | --- | --- | --- | --- | --- | --- | --- | --- | --- |
| O=C(NS(=O)(=O)c1ccc(NCC2CCOCC2)c([N+](=O)[O-])c1)c1ccc(N2CCN(Cc3ccc(C(F)(F)F)cc3-c3ccc(Cl)cc3)CC2)cc1Oc1cnc2[nH]ccc2c1 [A-1210227] | 1.3 | -8.2 | -948 | -1.6 | 7.4 | -10.3 | 94 | 100 | 95 | 100 | 76 | 100 | 98 | 88 | 81 | 75 | 100 | 94 | 94 | 100 | residual activity [21]: 72%; residual activity [22]: 100%; residual activity [23]: 85%; residual activity [24]: 100%; residual activity [25]: 100%; residual activity [26]: 91%; residual activity [27]: 95%; residual activity [28]: 71%; residual activity [29]: 100%; residual activity [30]: 100%; residual activity [31]: 100%; inhibition [32]: -1.15% |
| CO[C@H]1CC[C@H](CNc2ccc(S(=O)(=O)NC(=O)c3ccc(N4CCN(CC5=C(c6ccc(Cl)cc6)CC(C)(C)CC5)CC4)cc3Oc3cnc4[nH]ccc4c3)cc2[N+](=O)[O-])CC1 [A-1211212] | -4.4 | -10.9 | -22 | 8.6 | 2.8 | -2.6 | 100 | 100 | 83 | 58 | 78 | 54 | 80 | 100 | 100 | 66 | 84 | 100 | 84 | 85 | residual activity [21]: 97%; residual activity [22]: 100%; residual activity [23]: 90%; residual activity [24]: 90%; residual activity [25]: 97%; residual activity [26]: 79%; residual activity [27]: 93%; residual activity [28]: 74%; residual activity [29]: 87%; residual activity [30]: 100%; residual activity [31]: 100%; inhibition [32]: 4.97% |
